In publication PMC5575657, “Characterization and Expression Profiling of Camellia sinensis Cinnamate 4-hydroxylase Genes in Phenylpropanoid Pathways” (Genes, 2017):

Key:
Experiment in all cases: HPLC of p-coumaric acid formed in yeast culture
Type in all cases: cell-based
Conditions in all cases: 0.2 mM substrate fed to yeast culture, 28 °C, 1 h; product p-coumaric acid; empty vector control
CsC4Hb = target: T1, CsC4Hb (Camellia sinensis, UniProt A0A286QXW8)
T1 construct: gene C4Hb; cloning reverse primer keeps the stop codon
T1 sequence (A0A286QXW8 1-505): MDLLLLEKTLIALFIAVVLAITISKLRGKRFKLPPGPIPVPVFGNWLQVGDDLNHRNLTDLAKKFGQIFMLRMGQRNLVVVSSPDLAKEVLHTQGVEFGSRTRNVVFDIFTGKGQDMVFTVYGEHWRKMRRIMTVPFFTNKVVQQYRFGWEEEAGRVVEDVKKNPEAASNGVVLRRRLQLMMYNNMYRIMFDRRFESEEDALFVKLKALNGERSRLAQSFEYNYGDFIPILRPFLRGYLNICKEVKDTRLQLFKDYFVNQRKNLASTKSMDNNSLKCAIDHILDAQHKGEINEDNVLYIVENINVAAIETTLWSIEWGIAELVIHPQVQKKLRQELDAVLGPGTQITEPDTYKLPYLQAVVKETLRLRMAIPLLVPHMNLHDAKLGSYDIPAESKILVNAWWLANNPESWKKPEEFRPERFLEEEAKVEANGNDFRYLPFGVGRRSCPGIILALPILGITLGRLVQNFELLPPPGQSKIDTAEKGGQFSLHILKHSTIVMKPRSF

CsC4Ha = target: T2, CsC4Ha (Camellia sinensis, UniProt A0A286QXW9)
T2 construct: gene C4Ha; cloning reverse primer keeps the stop codon
T2 sequence (A0A286QXW9 1-505): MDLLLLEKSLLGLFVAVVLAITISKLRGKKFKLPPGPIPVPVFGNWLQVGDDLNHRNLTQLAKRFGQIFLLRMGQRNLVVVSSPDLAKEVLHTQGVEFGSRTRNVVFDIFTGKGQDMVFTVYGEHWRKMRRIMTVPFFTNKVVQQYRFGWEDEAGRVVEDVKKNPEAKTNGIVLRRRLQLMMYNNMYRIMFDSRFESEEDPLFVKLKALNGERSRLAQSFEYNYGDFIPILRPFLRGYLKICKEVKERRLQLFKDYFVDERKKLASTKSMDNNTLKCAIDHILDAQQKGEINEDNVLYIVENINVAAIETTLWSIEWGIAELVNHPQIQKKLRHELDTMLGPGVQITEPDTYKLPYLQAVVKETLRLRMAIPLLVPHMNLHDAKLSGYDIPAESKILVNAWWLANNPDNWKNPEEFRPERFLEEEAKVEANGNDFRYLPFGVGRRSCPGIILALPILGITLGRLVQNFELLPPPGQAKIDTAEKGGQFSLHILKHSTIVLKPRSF

CsC4Hc = target: T3, CsC4Hc (Camellia sinensis, UniProt A0A286QXW5)
T3 construct: gene C4Hc; cloning reverse primer keeps the stop codon
T3 sequence (A0A286QXW5 1-544): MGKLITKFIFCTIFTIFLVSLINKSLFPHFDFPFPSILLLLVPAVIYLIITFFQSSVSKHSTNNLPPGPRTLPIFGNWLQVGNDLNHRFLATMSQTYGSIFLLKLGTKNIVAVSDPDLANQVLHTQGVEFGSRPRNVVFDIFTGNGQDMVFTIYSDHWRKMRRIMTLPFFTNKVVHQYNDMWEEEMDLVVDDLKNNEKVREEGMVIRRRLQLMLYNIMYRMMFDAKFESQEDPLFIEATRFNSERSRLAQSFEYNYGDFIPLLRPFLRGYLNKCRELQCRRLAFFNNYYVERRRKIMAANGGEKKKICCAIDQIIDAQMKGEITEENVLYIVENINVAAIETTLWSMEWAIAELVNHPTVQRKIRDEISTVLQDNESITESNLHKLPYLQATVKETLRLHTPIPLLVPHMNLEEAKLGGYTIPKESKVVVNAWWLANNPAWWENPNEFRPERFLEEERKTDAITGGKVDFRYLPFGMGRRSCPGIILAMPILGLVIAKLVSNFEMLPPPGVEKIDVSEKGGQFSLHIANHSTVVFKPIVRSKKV

## O=C(O)/C=C/c1ccccc1 [trans-cinnamic acid]
CsC4Hb
  HPLC of p-coumaric acid formed in yeast culture: three recombinant CsC4Hs are able to convert t-cinnamate to yield p-coumarate when expressed in yeast
CsC4Ha
  HPLC of p-coumaric acid formed in yeast culture: three recombinant CsC4Hs are able to convert t-cinnamate to yield p-coumarate when expressed in yeast
CsC4Hc
  HPLC of p-coumaric acid formed in yeast culture: three recombinant CsC4Hs are able to convert t-cinnamate to yield p-coumarate when expressed in yeast
